Among the data in patent publication US11603359B2, “Benzothiadiazepine compounds and their use as bile acid modulators” (Albireo AB, priority 2019, dated 2023) are IC50 and bioavailability values, retold here.

In one data set the target is T1, human LBAT (Homo sapiens, UniProt Q14973).
T1 construct: expressed in transfected cells; Geneticin-selected LBAT-overexpressing cells
T1 sequence (Q14973 1-349): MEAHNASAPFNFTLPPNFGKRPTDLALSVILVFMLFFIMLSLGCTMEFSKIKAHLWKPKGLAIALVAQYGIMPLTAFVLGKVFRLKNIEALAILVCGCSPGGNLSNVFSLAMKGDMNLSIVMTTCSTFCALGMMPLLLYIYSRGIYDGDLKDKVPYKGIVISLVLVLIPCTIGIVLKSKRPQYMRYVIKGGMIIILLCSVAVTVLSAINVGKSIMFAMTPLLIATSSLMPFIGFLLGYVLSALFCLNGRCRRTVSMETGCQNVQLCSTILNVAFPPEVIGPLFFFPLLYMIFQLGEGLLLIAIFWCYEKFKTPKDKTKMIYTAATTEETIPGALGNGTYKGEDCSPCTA
In words: LBAT (h/m) assay, human LBAT-overexpressing cells, 3H-taurocholic acid uptake. In kind it is cell-based. The settings on record: 0.3 μM 3H-taurocholic acid + 7.5 μM cold taurocholic acid, 20 minutes, read-out: hLBAT IC50. As to the method:
20,000 cells (Human or Mouse LBAT-overexpressing cells) were seeded in 96-wells plate (Corning CLS3809) in 100 μL MEM-alpha medium (Gibco 12571-063) supplemented with 10% FBS (Gibco 10438026) containing Geneticin (Gibco 10131-027) (1 mg/mL) and incubated at 37° C. in 5% CO2 for 24 hours. After incubation, media was decanted from the wells and cells were washed two times with 300 μL of basal MEM-alpha medium (FBS-free). After decanting basal MEM-alpha medium each time, plates were tapped against paper towel to ensure maximum removal of residual media.
For human LBAT, incubation mix was prepared by adding test inhibitor dilutions (3-fold serial dilution in DMSO (Sigma D2650), 10 points) in MEM-alpha (without FBS) containing 0.3 μM 3H-taurocholic acid (ARC ART-1368) and 7.5 μM cold taurocholic acid (Sigma T4009) (maintaining 0.2% final DMSO concentration). For mouse LBAT, incubation mix was prepared by adding test inhibitor dilutions (3-fold serial dilution in DMSO, 10 points) in MEM-alpha (without FBS) containing 0.3 μM 3H-taurocholic acid and 25 μM cold taurocholic acid maintaining 0.2% final DMSO concentration).
50 μL of incubation mix containing test inhibitors was then added to the wells (in duplicate) and the plates were incubated for 20 minutes in a CO2 incubator at 37° C. After incubation, the reaction was stopped by keeping the plates on ice water mix for 2-3 minutes and then the incubation mix was aspirated completely from the wells. The wells were washed two times with 250 μL of chilled unlabelled 1 mM taurocholic acid dissolved in HEPES (Gibco 15630080)-buffered (10 mM) HBSS (Gibco 14175079) (pH 7.4). The plates were tapped against a paper towel after every wash to ensure maximum removal of blocking buffer.
100 μL of MicroScint-20 (PerkinElmer 6013621) was added to the wells and kept overnight at room temperature before reading the plates in TopCount NXT™ Microplate Scintillation and Luminescence Counter from PerkinElmer under 3H Test protocol (set at 120 seconds reading time per well, with normal plate orientation).
All test compounds were provided in powder form at room temperature. 10 mM DMSO stocks of the test compounds were prepared, aliquoted and stored at −20° C. From the 10 mM DMSO stock of the compounds, a 3-fold serial dilution in DMSO was prepared to get a total of 10 dilutions of the test compounds. 0.5 μL of this dilution in DMSO was added to 250 μL of FBS-free basal media containing 3H-taurocholic acid and cold taurocholic acid to prepare the incubation mixture.

A short description of data set [1]: Bioavailability studies in mice. The format is in vivo, mice (C57BL/6 or CD1). The settings on record: male, mouse, plasma, 1 mg/kg intravenous vs 10 mg/kg oral. As to the method:
(§1) Male mice (C57BL/6 or CD1) or Wistar rats of 8-9 weeks old were used. For each test compound, two groups of 3 animals each were used. One group was administered a single intravenous dose of 1 mg/kg (vehicle 100% DMSO) through the tail vein and the other group was administered a single oral dose of 10 mg/kg through gavage needle. The group that was administered an oral dose was fasted overnight. Blood samples were collected after 0.083, 0.25, 0.5, 1, 2, 4, 6, 8 and 24 hours following intravenous administration, and after 0.25, 0.5, 1, 2, 4, 6, 8 and 24 hours following oral administration. Blood samples were taken from saphenous vein. 0.2% EDTA was used as the anticoagulant. The samples were analyzed by a discovery grade bioanalytical method developed for the estimation of test compound in plasma, using an LC-MS/MS system.

Data set [2] is described as follows: Bioavailability studies in rats. In kind it is in vivo. The settings on record: male, Wistar, plasma, rat, 1 mg/kg intravenous vs 10 mg/kg oral. The method, then:
as §1

As for `CCCCC1(CCCC)CN(c2ccccc2)c2cc(SC)c(OCC(O)C(=O)O)cc2S(=O)(=O)N1` (racemic) [Example 5, 3-((3,3-dibutyl-7-(methylthio)-1,1-dioxido-5-phenyl-2,3,4,5-tetrahydro-1,2,5-benzothiadiazepin-8-yl)oxy)-2-hydroxypropanoic acid], the IC50 – broadly, the concentration that inhibits the measured activity by half – at human LBAT was determined as 1880 nM.
The same measure, in the same setting: as for `CCCCC1(CC)CN(c2ccccc2)c2cc(N(C)C)c(OCCC(=O)O)cc2S(=O)(=O)N1` (racemic) [Example 11, 3-((3-Butyl-7-(dimethylamino)-3-ethyl-1,1-dioxido-5-phenyl-2,3,4,5-tetrahydro-1,2,5-benzothiadiazepin-8-yl)oxy)propanoic acid], the figure is 1170 nM.
With `CCCCC1(CC)CN(c2ccccc2)c2cc(SC)c(OCCC(=O)O)cc2S(=O)(=O)N1` (single isomer, unassigned) [Example 4, 3-((3-butyl-3-ethyl-7-(methylthio)-1,1-dioxido-5-phenyl-2,3,4,5-tetrahydro-1,2,5-benzothiadiazepin-8-yl)oxy)propanoic acid], the IC50 on human LBAT worked out at 3650 nM. In addition, the figures for the bioavailability in data set [1] (CD1 mice) and in data set [2] were 45% and 90%, respectively.
Take `CCCCC1(CCCC)CN(c2ccccc2)c2cc(SC)c(OCC(O)C(=O)O)cc2S(=O)(=O)N1` (single isomer, unassigned) [Example 7, 3-((3,3-dibutyl-7-(methylthio)-1,1-dioxido-5-phenyl-2,3,4,5-tetrahydro-1,2,5-benzothiadiazepin-8-yl)oxy)-2-hydroxypropanoic acid]: at human LBAT, the IC50 came to 2220 nM.
`CCCCC1(CC)CN(c2ccccc2)c2cc(N(C)C)c(OCCC(=O)O)cc2S(=O)(=O)N1` (single isomer, unassigned) [Example 12, 3-((3-butyl-7-(dimethylamino)-3-ethyl-1,1-dioxido-5-phenyl-2,3,4,5-tetrahydro-1,2,5-benzothiadiazepin-8-yl)oxy)propanoic acid]: the IC50 at human LBAT came to 2220 nM.
Consider `CCCCC1(CCCC)CN(c2ccccc2)c2cc(SC)c(OCCC(=O)O)cc2S(=O)(=O)N1` [Example 1, 3-((3,3-Dibutyl-7-(methylthio)-1,1-dioxido-5-phenyl-2,3,4,5-tetrahydro-1,2,5-benzothiadiazepin-8-yl)oxy)propanoic acid], for which the IC50 on human LBAT was determined as 2910 nM. Moreover, the bioavailability – broadly, the share of a dose that reaches the circulation, judged against a reference dose that is usually intravenous – in data set [1] (C57BL/6 mice) was determined as 34%; in data set [1] (CD1 mice) it was 59%; in data set [2] (Na^+ salt), 98%.
With `CCCCC1(CCCC)CN(c2ccccc2)c2cc(SC)c(OC(C)CC(=O)O)cc2S(=O)(=O)N1` (centres unmarked) [Example 8, 3-((3,3-Dibutyl-7-(methylthio)-1,1-dioxido-5-phenyl-2,3,4,5-tetrahydro-1,2,5-benzothiadiazepin-8-yl)oxy)butanoic acid], the IC50 at human LBAT worked out at 2630 nM.
On the same count and under the same terms, as for `CCCCC1(CCCC)CN(c2ccccc2)c2cc(Cl)c(OCCC(=O)O)cc2S(=O)(=O)N1` [Example 9, 3-((3,3-dibutyl-7-chloro-1,1-dioxido-5-phenyl-2,3,4,5-tetrahydro-1,2,5-benzothiadiazepin-8-yl)oxy)propanoic acid], the figure is 1620 nM; as for `CCCCC1(CCCC)CN(c2ccc(O)cc2)c2cc(SC)c(OCCC(=O)O)cc2S(=O)(=O)N1` [Example 10, 3-((3,3-dibutyl-5-(4-hydroxyphenyl)-7-(methylthio)-1,1-dioxido-2,3,4,5-tetrahydro-1,2,5-benzothiadiazepin-8-yl)oxy)propanoic acid], 7200 nM.
